Test system: soluble collagen and insoluble collagen of abdominal skin
Assay: Oral administration test in rats: L-hydroxyproline in soluble and insoluble collagen of abdominal skin (Experimental Example 2)
Assay type: in vivo, F344/DuCrlCrlj rats
Conditions: oral 10 mL/kg once a day for 12 days, abdominal skin on 13th day, soluble plus insoluble collagen, mean±standard deviation, 4 rats per group
Procedure: To the rats of the administration groups 7-11 were each administered with compositions 7-11 obtained by dissolving collagen peptide and L-hydroxyproline in purified water to the contents shown in Table 3 at 10 mL/kg. The rats of the control administration group 12 were administered with purified water at 10 mL/kg.
On the 13th day from the start of the administration test, the abdomen was shaved under anesthesia by intraperitoneal administration of pentobarbital, and the abdominal skin was collected. […] The values are shown by mean±standard deviation.

O=C(O)[C@@H]1C[C@@H](O)CN1 [composition 11, trans-4-hydroxy-L-proline]
L-hydroxyproline amount/wet weight of skin: 10.66 ± 1.69 mg/g
